The text below walks through data of patent publication US5633263A, “Linear somatostatin analogs” (The Administrators of the Tulane Educational Fund, priority 1994, dated 1997).

Assay [1] addresses [125I-Tyr11]SRIF-14 binding to crude membrane preparations from rat pancreas. Kind of assay: Inhibition of [125I]SRIF-14 binding, pancreas membranes. The following applies: for IC50: rat pancreas membranes, [125I]SRIF-14 approximately 0.05 nM, read-out: IC50 (nM) Pancreas, inhibition of I125 SRIF-14 binding. The method, then: (§1) Crude membrane preparations were obtained from rat pancreas, cerebral cortex, or human small cell lung carcinoma (NCI-H69) cells by homogenizing (Polytron, setting 6, 15 sec) the tissues or cells in ice-cold 50 mM Tris-HCl and centrifuging twice at 39,000× g (10 min), with an intermediate resuspension in fresh buffer. The final pellets were resuspended in 10 mM Tris-HCl for assay. Aliquots of the membrane preparation were incubated for 25 min at 30° C. with labeled somatotropin-release-inhibiting factor, [^125 I-Tyr^11 ] SRIF-14 (2000 Ci/mmol, Amersham Corp.), in 50 mM HEPES (pH 7.4) containing bovine serum albumin (10 mg/ml; fraction V, Sigma Chem.), MgCl2 (5mM), Trasylol (200 KIU/ml), bacitracin (0.02 mg/ml), and phenylmethylsulphonyl fluoride (0.02 mg/ml). The final assay volume was 0.3 ml. The incubations were terminated by rapid filtration through Whatman GF/C filters (pre-soaked in 0.3% polyethylenimine) under reduced pressure. Each tube and filter were then washed three times with 5 ml aliquots of ice-cold buffer. Specific binding was defined as the total [^125 I]SRIF-14 bound minus that bound in the presence of 200 nM unlabelled SRIF-14.
Table 1 gives results of inhibition of [^125 I]SRIF-14 binding by linear peptides of the invention. The concentration of [^125 I]SRIF-14 was approximately 0.05 nM. (Values in parenthesis indicate the number of independent determinations.) The IC50 (concentration of analog resulting is 50% competitive inhibition) in nM values are indicated for pancreas, small cell lung carcinoma (SCLC), and brain. […] Peptide DC-23-85, which is not within the invention, inhibits the binding of I^125 SRIF-14 only poorly.

The target of assay [2] is [125I-Tyr11]SRIF-14 binding to crude membrane preparations from rat cerebral cortex. Kind of assay: Inhibition of [125I]SRIF-14 binding, brain membranes. The following applies: [125I]SRIF-14 approximately 0.05 nM, read-out: IC50 (nM) Brain, inhibition of I125 SRIF-14 binding. The procedure:
as §1
(§2) Table 1 gives results of inhibition of [^125 I]SRIF-14 binding by linear peptides of the invention. The concentration of [^125 I]SRIF-14 was approximately 0.05 nM. […]

In assay [3] the test system is [125I-Tyr11]SRIF-14 binding to crude membrane preparations from human small cell lung carcinoma (NCI-H69) cells. Kind of assay: Inhibition of [125I]SRIF-14 binding, SCLC membranes. The following applies: [125I]SRIF-14 approximately 0.05 nM, read-out: IC50 (nM) SCLC, inhibition of I125 SRIF-14 binding. The procedure:
as §1, §2

Molecules are shown by their SMILES. Where a SMILES comes first, the peptide text is derived from it. [ ]: non-standard residue; d: D form.

Take `C[C@@H](O)[C@H](NC(=O)[C@H](Cc1ccccc1)NC(=O)[C@@H](NC(=O)[C@H](CCCCN)NC(=O)[C@@H](Cc1c[nH]c2ccccc12)NC(=O)[C@H](Cc1ccccc1)NC(=O)[C@H](Cc1ccccc1)NC(=O)[C@H](N)Cc1ccccc1)[C@@H](C)O)C(N)=O` [BIM-23052/DC-23-99, D-Phe-Phe-Phe-D-Trp-Lys-Thr-Phe-Thr-NH2] (H-[dF]FF[dW]KTFT-NH2): the results for the half-inhibitory concentration (IC50) in assay [1], in assay [2] and in assay [3] were 9.4 nM, 7.3 nM and 1.2 nM, respectively. Besides, the “inhibiting the binding of I125 SRIF-14 (in words)” value in assay [1] (summary in words of Table 1 (pancreas, SCLC, brain)) is on record as “particularly effective”.
As to `C[C@H](N)C(=O)NCC(=O)N[C@H]1CSSC[C@@H](C(=O)O)NC(=O)[C@H](CO)NC(=O)[C@H]([C@@H](C)O)NC(=O)[C@H](Cc2ccccc2)NC(=O)[C@H]([C@@H](C)O)NC(=O)[C@H](CCCCN)NC(=O)[C@H](Cc2c[nH]c3ccccc23)NC(=O)[C@H](Cc2ccccc2)NC(=O)[C@H](Cc2ccccc2)NC(=O)[C@H](CC(N)=O)NC(=O)[C@H](CCCCN)NC1=O` [Somatostatin, Ala-Gly-Cys-Lys-Asn-Phe-Phe-Trp-Lys-Thr-Phe-Ser-OH], the results for the half-maximal inhibitory concentration (IC50) in assay [1], in assay [2] and in assay [3] were 0.53 nM, 0.53 nM and 4.2 nM, respectively.
